In publication PMC10507085, “Pharmacological inhibition of TBK1/IKKε blunts immunopathology in a murine model of SARS-CoV-2 infection” (Nature Communications, 2023):

How the values were obtained:
[1] = target: T1, TBK1 (TANK-binding kinase 1) (Homo sapiens, UniProt Q9UHD2); assay: surface plasmon resonance (Biacore T200, steady-state affinity)
T1 construct: full-length human TBK1, expressed in Sf9, His tag removed by TEV

[2] = target: T2, DRAK1 (Homo sapiens, UniProt Q9UEE5); assay: KINOMEscan competition binding ([…] kinases, […] IDX)
T2 construct: gene STK17A
T2 sequence (Q9UEE5 1-414): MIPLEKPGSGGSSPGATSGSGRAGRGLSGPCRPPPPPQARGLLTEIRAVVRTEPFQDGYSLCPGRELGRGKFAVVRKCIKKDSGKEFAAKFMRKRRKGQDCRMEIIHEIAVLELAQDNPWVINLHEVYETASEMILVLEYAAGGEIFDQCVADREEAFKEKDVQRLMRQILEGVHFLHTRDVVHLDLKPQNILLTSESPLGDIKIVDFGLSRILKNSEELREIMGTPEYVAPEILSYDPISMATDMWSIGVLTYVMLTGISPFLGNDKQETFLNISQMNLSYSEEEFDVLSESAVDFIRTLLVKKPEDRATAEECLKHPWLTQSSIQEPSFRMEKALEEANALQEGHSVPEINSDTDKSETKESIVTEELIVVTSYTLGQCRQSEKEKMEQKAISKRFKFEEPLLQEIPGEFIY

[3] = target: T3, PIM2 (Homo sapiens, UniProt Q9P1W9); assay: KINOMEscan competition binding ([…] kinases, […] IDX)
[4] = target: T2, DRAK1; assay: biochemical; parameters: KINOMEscan competition binding, DNA-tagged kinase against immobilised ligand, qPCR read-out; conditions: read-out: Percent Control
[5] = target: T3, PIM2; assay: biochemical; parameters: KINOMEscan competition binding, DNA-tagged kinase against immobilised ligand, qPCR read-out; conditions: read-out: Percent Control
[6] = target: PKNB(M.tuberculosis) (Mycobacterium tuberculosis, UniProt P9WI81); assay: biochemical; parameters: KINOMEscan competition binding, DNA-tagged kinase against immobilised ligand, qPCR read-out; conditions: read-out: Percent Control
[7] = target: T4, PFPK5(P.falciparum) (Plasmodium falciparum, UniProt P61075); assay: biochemical; parameters: KINOMEscan competition binding, DNA-tagged kinase against immobilised ligand, qPCR read-out; conditions: read-out: Percent Control
T4 construct: gene CRK2

[8] = target: T2, DRAK1; assay: biochemical; parameters: KINOMEscan competition binding, DNA-tagged kinase against immobilised ligand, qPCR read-out
[9] = target: DYRK1B (Homo sapiens, UniProt Q9Y463); assay: biochemical; conditions: read-out: Percent Control
[10] = target: LTK (Homo sapiens, UniProt P29376); assay: biochemical; conditions: read-out: Percent Control
Sequence of LTK (P29376 whole entry): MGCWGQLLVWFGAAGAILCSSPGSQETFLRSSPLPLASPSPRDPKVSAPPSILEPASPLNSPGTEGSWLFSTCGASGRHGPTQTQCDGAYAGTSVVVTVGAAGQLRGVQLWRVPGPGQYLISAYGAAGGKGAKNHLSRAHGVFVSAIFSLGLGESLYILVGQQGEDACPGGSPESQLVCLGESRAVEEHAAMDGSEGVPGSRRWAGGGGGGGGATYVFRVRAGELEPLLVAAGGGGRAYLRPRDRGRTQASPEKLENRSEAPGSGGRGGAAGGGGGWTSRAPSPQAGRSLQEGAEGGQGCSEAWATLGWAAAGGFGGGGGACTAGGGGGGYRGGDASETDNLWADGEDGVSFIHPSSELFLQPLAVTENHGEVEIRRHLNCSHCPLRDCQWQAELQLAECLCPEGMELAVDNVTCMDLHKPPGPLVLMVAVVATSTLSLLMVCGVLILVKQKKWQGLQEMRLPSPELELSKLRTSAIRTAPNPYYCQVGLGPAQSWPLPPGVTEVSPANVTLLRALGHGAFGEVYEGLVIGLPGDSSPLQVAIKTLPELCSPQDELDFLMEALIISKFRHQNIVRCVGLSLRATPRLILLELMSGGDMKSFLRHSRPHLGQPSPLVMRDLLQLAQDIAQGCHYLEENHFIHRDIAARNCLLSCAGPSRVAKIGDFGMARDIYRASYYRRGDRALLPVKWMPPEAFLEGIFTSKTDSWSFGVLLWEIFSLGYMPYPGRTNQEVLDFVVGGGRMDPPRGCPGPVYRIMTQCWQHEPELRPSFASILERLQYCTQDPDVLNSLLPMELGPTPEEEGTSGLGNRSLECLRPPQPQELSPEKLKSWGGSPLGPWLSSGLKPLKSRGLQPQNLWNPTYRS

T3 sequence (Q9P1W9 whole entry): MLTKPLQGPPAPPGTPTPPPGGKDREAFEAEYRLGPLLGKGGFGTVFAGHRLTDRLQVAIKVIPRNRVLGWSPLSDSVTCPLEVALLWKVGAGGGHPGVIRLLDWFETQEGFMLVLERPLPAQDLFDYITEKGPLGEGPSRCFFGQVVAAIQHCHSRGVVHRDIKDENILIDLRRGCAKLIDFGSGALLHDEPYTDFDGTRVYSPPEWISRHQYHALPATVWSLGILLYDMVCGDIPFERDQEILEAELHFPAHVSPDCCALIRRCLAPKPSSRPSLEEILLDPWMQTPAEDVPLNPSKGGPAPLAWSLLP
T4 sequence (P61075 whole entry): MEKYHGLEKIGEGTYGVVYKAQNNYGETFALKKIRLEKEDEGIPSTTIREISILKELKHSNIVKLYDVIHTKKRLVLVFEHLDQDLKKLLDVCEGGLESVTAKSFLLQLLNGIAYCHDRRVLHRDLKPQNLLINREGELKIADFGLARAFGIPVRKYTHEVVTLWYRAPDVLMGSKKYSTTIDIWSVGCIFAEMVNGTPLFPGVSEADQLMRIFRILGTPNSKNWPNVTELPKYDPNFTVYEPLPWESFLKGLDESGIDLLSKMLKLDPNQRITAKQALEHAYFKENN
T1 sequence (Q9UHD2 whole entry): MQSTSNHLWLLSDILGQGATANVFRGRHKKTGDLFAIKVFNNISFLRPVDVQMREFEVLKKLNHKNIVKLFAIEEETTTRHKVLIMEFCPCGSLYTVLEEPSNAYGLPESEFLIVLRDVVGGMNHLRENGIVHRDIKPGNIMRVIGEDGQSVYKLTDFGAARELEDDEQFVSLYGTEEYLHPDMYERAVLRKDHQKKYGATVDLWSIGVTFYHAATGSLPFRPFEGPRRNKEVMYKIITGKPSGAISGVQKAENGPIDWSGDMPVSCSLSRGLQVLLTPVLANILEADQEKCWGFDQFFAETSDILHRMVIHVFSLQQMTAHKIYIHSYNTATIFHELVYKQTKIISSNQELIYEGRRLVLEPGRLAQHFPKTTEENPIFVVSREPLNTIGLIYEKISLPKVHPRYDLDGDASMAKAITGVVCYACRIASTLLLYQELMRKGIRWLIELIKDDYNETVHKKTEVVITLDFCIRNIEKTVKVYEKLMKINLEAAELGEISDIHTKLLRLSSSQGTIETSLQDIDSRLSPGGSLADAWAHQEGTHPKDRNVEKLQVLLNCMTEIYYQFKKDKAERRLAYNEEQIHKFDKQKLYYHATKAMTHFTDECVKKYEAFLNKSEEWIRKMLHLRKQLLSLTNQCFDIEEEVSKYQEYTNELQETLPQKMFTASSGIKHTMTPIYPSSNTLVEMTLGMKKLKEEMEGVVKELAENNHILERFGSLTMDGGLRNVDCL
Sequence of PKNB(M.tuberculosis) (P9WI81 whole entry): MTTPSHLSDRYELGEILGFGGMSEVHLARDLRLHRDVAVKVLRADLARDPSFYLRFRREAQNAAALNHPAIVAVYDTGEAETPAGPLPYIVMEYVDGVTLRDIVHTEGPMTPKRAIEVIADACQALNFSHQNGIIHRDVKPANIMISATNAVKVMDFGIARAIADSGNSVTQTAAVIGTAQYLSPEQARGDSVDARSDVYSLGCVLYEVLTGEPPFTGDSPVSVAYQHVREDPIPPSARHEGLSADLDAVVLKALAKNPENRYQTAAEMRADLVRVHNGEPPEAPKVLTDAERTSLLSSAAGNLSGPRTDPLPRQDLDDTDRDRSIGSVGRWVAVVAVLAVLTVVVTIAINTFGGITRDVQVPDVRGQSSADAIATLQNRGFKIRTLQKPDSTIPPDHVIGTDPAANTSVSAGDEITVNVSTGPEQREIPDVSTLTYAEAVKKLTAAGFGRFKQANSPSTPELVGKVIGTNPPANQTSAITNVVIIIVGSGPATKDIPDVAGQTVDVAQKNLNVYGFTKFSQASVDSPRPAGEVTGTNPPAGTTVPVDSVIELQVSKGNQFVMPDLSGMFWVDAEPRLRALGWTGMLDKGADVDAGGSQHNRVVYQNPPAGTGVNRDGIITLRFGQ
Sequence of DYRK1B (Q9Y463 whole entry): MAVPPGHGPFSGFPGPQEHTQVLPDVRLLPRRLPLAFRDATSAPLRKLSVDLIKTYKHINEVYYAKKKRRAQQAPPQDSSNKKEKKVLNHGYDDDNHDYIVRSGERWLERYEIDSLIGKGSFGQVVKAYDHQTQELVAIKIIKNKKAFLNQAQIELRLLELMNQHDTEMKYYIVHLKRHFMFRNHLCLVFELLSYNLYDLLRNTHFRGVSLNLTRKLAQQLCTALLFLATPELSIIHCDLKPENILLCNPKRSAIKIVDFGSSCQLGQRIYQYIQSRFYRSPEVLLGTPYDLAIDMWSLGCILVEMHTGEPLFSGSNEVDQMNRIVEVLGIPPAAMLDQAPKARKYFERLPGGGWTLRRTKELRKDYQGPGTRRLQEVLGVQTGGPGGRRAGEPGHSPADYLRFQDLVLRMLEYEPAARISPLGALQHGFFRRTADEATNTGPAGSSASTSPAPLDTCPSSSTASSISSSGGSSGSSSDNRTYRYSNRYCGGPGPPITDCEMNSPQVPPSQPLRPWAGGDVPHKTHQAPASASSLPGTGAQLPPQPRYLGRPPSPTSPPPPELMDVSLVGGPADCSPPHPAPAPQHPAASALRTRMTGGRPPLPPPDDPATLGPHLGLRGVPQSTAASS

**Q.** With `Oc1ccc(C2=Cc3ccc(O)cc3OC2)cc1` [compound 1, idronoxil] as the compound, how does the Kd [1] read?
**A.** Its Kd is 39.2 µM.

**Q.** What about the “KINOMEscan competition binding (403 kinases, 10 μM IDX)” value [2] of the same compound?
**A.** The value was “broadly a poor kinase inhibitor, only binding its top two targets (PIM2 and DRAK1) in the micromolar range”.

**Q.** And the “KINOMEscan competition binding (403 kinases, 10 μM IDX)” value [3]?
**A.** Its value is “broadly a poor kinase inhibitor, only binding its top two targets (PIM2 and DRAK1) in the micromolar range”.

**Q.** And the remaining binding at 10 µM [4]?
**A.** Its remaining binding at 10 µM is 4.3%.

**Q.** What about the remaining binding at 10 µM [5] of the same compound?
**A.** Its remaining binding at 10 µM is 2.6%.

**Q.** What about the remaining binding at 10 µM [6] of the same compound?
**A.** Its remaining binding at 10 µM is 76%.

**Q.** What about the remaining binding at 10 µM [7] of the same compound?
**A.** The remaining binding at 10 µM was 95%.

**Q.** What about the Kd [8] of the same compound?
**A.** The Kd was 1.2 µM.

**Q.** What about the remaining activity at 10 µM [9] of the same compound?
**A.** The remaining activity at 10 µM was 27%.

**Q.** What about the remaining activity at 10 µM [10] of the same compound?
**A.** The remaining activity at 10 µM was 95%.
